Data: patent US7138361B2, “Herbicidal heterocycles” (E. I. du Pont de Nemours and Company, priority 2000, dated 2006)

How the values were obtained:
Format in all cases: in vivo
[1] = test system: yellow nutsedge (Cyperus esculentus); assay: Test C postemergence
Outline: (§1)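 Each compound was dissolved in a non-phytotoxic solvent system containing a surfactant and sprayed either on freshly planted seeds (preemergence) or on young plants, 2 to 18 cm high (postemergence). Ratings after 12 to 14 greenhouse days ran from 0, no effect, to 100, complete control.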

[2] = test system: giant foxtail (Setaria faberii); assay: Test C postemergence
Outline: as §1

[3] = test system: bermudagrass (Cynodon dactylon); assay: Test C postemergence
Outline: as §1

[4] = test system: johnsongrass (Sorghum halepense); assay: Test C postemergence
Outline: as §1

[5] = test system: Surinam grass (Brachiaria decumbens); assay: Test C postemergence
Outline: as §1

[6] = test system: pigweed (Amaranthus retroflexus); assay: Test C postemergence
Outline: as §1

[7] = test system: cocklebur (Xanthium strumarium); assay: Test C postemergence
Outline: as §1

[8] = test system: crabgrass (Digitaria sanguinalis); assay: Test C postemergence
Outline: as §1

[9] = test system: woolly cupgrass (Eriochloa villosa); assay: Test C postemergence
Outline: as §1

[10] = test system: common ragweed (Ambrosia elatior); assay: Test C postemergence
Outline: as §1

[11] = test system: morningglory (Ipomoea hederacea); assay: Test C postemergence
Outline: as §1

[12] = test system: chickweed (Stellaria media); assay: Test C postemergence
Outline: as §1

corn (Zea mays) = assay: Test C postemergence
Outline: as §1

kochia (Kochia scoparia) = assay: Test C postemergence
Outline: as §1

[13] = test system: barnyardgrass (Echinochloa crus-galli); assay: Test C flooded paddy test; settings: for Barnyardgrass plant response rating: Flooded Paddy, scale 0 to 100, 0 no effect, 100 complete control; for Plant response rating, Barnyardgrass: flooded paddy test, scale 0 to 100 (0 no effect, 100 complete control)
Outline: (§2)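 2-leaf-stage plants, flooded paddy; treated; greenhouse 12–14 days; compared with controls by eye; rated 0–100 (0 none, 100 complete control).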

rice (Oryza saliva) = assay: Test C flooded paddy test; settings: for Rice plant response rating: Flooded Paddy, scale 0 to 100, 0 no effect, 100 complete control; for Plant response rating, Rice: flooded paddy test, scale 0 to 100 (0 no effect, 100 complete control)
Outline: as §2

[14] = test system: duck salad (Heteranthera limosa); assay: Test C flooded paddy test; settings: for Ducksalad plant response rating: Flooded Paddy, scale 0 to 100, 0 no effect, 100 complete control; for Plant response rating, Ducksalad: flooded paddy test, scale 0 to 100 (0 no effect, 100 complete control)
Outline: as §2

Sunflower = assay: Test C preemergence; settings: Rate 31 g/ha, scale 0 to 100
[15] = Rate 125 g/ha, scale 0 to 100, 0 no effect, 100 complete control
[16] = Rate 250 g/ha, scale 0 to 100 (0 no effect, 100 complete control)
[17] = Rate 62 g/ha, scale 0 to 100, 0 no effect, 100 complete control

Structure (SMILES): O=C1C(n2ccc(C3CCC3)n2)SCN1c1cccc(C(F)(F)F)c1 (stereo not drawn) [Compound 37]
- Plant response rating, Nutsedge ([1]; Rate 31 g/ha, scale 0 to 100): 0
- Plant response rating, Nutsedge [1, 15]: 0
- Plant response rating, Nutsedge [1, 16]: 0
- Plant response rating, Foxtail, Giant ([2]; Rate 31 g/ha, scale 0 to 100): 0
- Plant response rating, Foxtail, Giant [2, 15]: 0
- Plant response rating, Foxtail, Giant [2, 16]: 0
- Plant response rating, Bermudagrass ([3]; Rate 31 g/ha, scale 0 to 100): 0
- Plant response rating, Bermudagrass [3, 17]: 0
- Plant response rating, Bermudagrass [3, 15]: 0
- Plant response rating, Bermudagrass [3, 16]: 0
- Plant response rating, Johnsongrass ([4]; Rate 31 g/ha, scale 0 to 100): 0
- Plant response rating, Johnsongrass [4, 15]: 0
- Plant response rating, Johnsongrass [4, 16]: 0
- Plant response rating, Surinam grass ([5]; Rate 31 g/ha, scale 0 to 100): 0
- Plant response rating, Surinam grass [5, 15]: 0
- Plant response rating, Surinam grass [5, 16]: 0
- Plant response rating, Pigweed ([6]; Rate 31 g/ha, scale 0 to 100): 0
- Plant response rating, Pigweed [6, 15]: 0
- Plant response rating, Pigweed [6, 16]: 0
- Plant response rating, Cocklebur ([7]; Rate 31 g/ha, scale 0 to 100): 0
- Plant response rating, Cocklebur [7, 15]: 0
- Plant response rating, Cocklebur [7, 16]: 0
- Plant response rating, Crabgrass ([8]; Rate 31 g/ha, scale 0 to 100): 0
- Plant response rating, Crabgrass [8, 15]: 0
- Plant response rating, Crabgrass [8, 16]: 0
- Plant response rating, Cupgrass, Woolly ([9]; Rate 31 g/ha, scale 0 to 100): 0
- Plant response rating, Cupgrass, Woolly [9, 15]: 0
- Plant response rating, Cupgrass, Woolly [9, 16]: 0
- Plant response rating, Ragweed, Common ([10]; Rate 31 g/ha, scale 0 to 100): 0
- Plant response rating, Ragweed, Common [10, 15]: 0
- Plant response rating, Ragweed, Common [10, 16]: 0
- Plant response rating, Morningglory ([11]; Rate 31 g/ha, scale 0 to 100): 0
- Plant response rating, Morningglory [11, 15]: 0
- Plant response rating, Morningglory [11, 16]: 0
- Plant response rating, Chickweed ([12]; Rate 31 g/ha, scale 0 to 100): 0
- Plant response rating, Chickweed [12, 17]: 0
- Plant response rating, Chickweed [12, 15]: 0
- Plant response rating, Chickweed [12, 16]: 0
- Plant response rating, Corn (corn (Zea mays); Rate 31 g/ha, scale 0 to 100): 0
- Plant response rating, Corn (corn (Zea mays); [15]): 0
- Plant response rating, Corn (corn (Zea mays); [16]): 0
- Plant response rating, Kochia (kochia (Kochia scoparia); Rate 31 g/ha, scale 0 to 100): 0
- Plant response rating, Kochia (kochia (Kochia scoparia); [15]): 20
- Plant response rating, Kochia (kochia (Kochia scoparia); [16]): 70
- Barnyardgrass plant response rating ([13]; Rate 250 g/ha): 100
- Barnyardgrass plant response rating ([13]; Rate 500 g/ha): 100
- Plant response rating, Barnyardgrass ([13]; Rate 62 g/ha): 70
- Plant response rating, Barnyardgrass ([13]; Rate 125 g/ha): 100
- Rice plant response rating (rice (Oryza saliva); Rate 250 g/ha): 30
- Rice plant response rating (rice (Oryza saliva); Rate 500 g/ha): 90
- Plant response rating, Rice (rice (Oryza saliva); Rate 62 g/ha): 0
- Plant response rating, Rice (rice (Oryza saliva); Rate 125 g/ha): 0
- Ducksalad plant response rating ([14]; Rate 250 g/ha): 90
- Ducksalad plant response rating ([14]; Rate 500 g/ha): 100
- Plant response rating, Ducksalad ([14]; Rate 62 g/ha): 20
- Plant response rating, Ducksalad ([14]; Rate 125 g/ha): 80
- Plant response rating, Sunflower (Sunflower): 0
